Experimental data: the NIST ThermoML archive (doi:10.1021/je5010214)
Numbers after ± are expanded uncertainties.

Settings: Liquid, Vibrating tube method

CC(C)CO [2-methyl-1-propanol]
Settings	mass density [kg/m3]
343.15 K, 50016 kPa	802.401 ± 0.92
343.15 K, 52079 kPa	803.724 ± 0.93
343.15 K, 54997 kPa	805.581 ± 0.93
343.15 K, 57987 kPa	807.46 ± 0.94
343.15 K, 62074 kPa	809.959 ± 0.95
343.15 K, 65051 kPa	811.734 ± 0.96
343.15 K, 66170 kPa	812.401 ± 0.96
343.16 K, 60015 kPa	808.691 ± 0.95
348.15 K, 94 kPa	756.672 ± 0.81
348.15 K, 293.8 kPa	756.914 ± 0.81
348.15 K, 481.9 kPa	757.128 ± 0.81
348.15 K, 763.5 kPa	757.435 ± 0.81
348.15 K, 1011 kPa	757.701 ± 0.81
348.15 K, 1981.1 kPa	758.826 ± 0.81
348.15 K, 3073.2 kPa	759.88 ± 0.81
348.15 K, 5089.9 kPa	762.131 ± 0.82
348.15 K, 7034.6 kPa	764.092 ± 0.82
348.15 K, 9052.5 kPa	766.106 ± 0.82
348.15 K, 9991.3 kPa	767.026 ± 0.82
348.15 K, 15042 kPa	771.822 ± 0.83
348.15 K, 17922 kPa	774.408 ± 0.84
348.15 K, 19893 kPa	776.137 ± 0.84
348.15 K, 22033 kPa	777.985 ± 0.85
348.15 K, 22381 kPa	778.265 ± 0.85
348.15 K, 28023 kPa	782.927 ± 0.86
348.15 K, 29922 kPa	784.471 ± 0.87
348.15 K, 33999 kPa	787.493 ± 0.88
348.15 K, 34980 kPa	788.228 ± 0.88
348.15 K, 37995 kPa	790.467 ± 0.89
348.15 K, 40072 kPa	791.973 ± 0.9
348.15 K, 41992 kPa	793.388 ± 0.9
348.15 K, 45082 kPa	795.525 ± 0.91
348.15 K, 48031 kPa	797.589 ± 0.92
348.15 K, 52067 kPa	800.261 ± 0.93
348.15 K, 55099 kPa	802.242 ± 0.94
348.15 K, 60084 kPa	805.42 ± 0.95
348.15 K, 62302 kPa	806.758 ± 0.96
348.15 K, 65219 kPa	808.569 ± 0.97
348.15 K, 66250 kPa	809.201 ± 0.97
348.16 K, 12060 kPa	769.03 ± 0.83
348.16 K, 25066 kPa	780.513 ± 0.86
348.16 K, 32007 kPa	786.046 ± 0.87
348.16 K, 32760 kPa	786.619 ± 0.88
348.16 K, 32941 kPa	786.66 ± 0.88
348.16 K, 50014 kPa	798.878 ± 0.92
348.16 K, 58146 kPa	804.186 ± 0.95
353.15 K, 98.1 kPa	752.221 ± 0.81
353.15 K, 305.8 kPa	752.433 ± 0.81
353.15 K, 384 kPa	752.511 ± 0.81
353.15 K, 558.5 kPa	752.696 ± 0.81
353.15 K, 929.4 kPa	753.125 ± 0.81
353.15 K, 1073.7 kPa	753.289 ± 0.81
353.15 K, 2082.7 kPa	754.432 ± 0.81
353.15 K, 3025.9 kPa	755.465 ± 0.81
353.15 K, 5017.9 kPa	757.656 ± 0.82
353.15 K, 6957.8 kPa	759.69 ± 0.82
353.15 K, 8976.6 kPa	761.781 ± 0.82
353.15 K, 9990.3 kPa	762.812 ± 0.82
353.15 K, 11934 kPa	764.803 ± 0.83
353.15 K, 14917 kPa	767.603 ± 0.83
353.15 K, 18020 kPa	770.471 ± 0.84
353.15 K, 19983 kPa	772.259 ± 0.85
353.15 K, 22060 kPa	773.965 ± 0.85
353.15 K, 24899 kPa	776.429 ± 0.86
353.15 K, 27951 kPa	778.961 ± 0.86
353.15 K, 29947 kPa	780.584 ± 0.87
353.15 K, 31942 kPa	782.185 ± 0.88
353.15 K, 32982 kPa	782.978 ± 0.88
353.15 K, 33037 kPa	783.002 ± 0.88
353.15 K, 33907 kPa	783.604 ± 0.88
353.15 K, 35053 kPa	784.493 ± 0.88
353.15 K, 37939 kPa	786.664 ± 0.89
353.15 K, 39830 kPa	788.076 ± 0.9
353.15 K, 41863 kPa	789.556 ± 0.9
353.15 K, 44753 kPa	791.642 ± 0.91
353.15 K, 47880 kPa	793.816 ± 0.92
353.15 K, 49780 kPa	795.14 ± 0.93
353.15 K, 51876 kPa	796.535 ± 0.93
353.15 K, 55023 kPa	798.765 ± 0.94
353.15 K, 55678 kPa	799.178 ± 0.94
353.15 K, 57869 kPa	800.594 ± 0.95
353.15 K, 59971 kPa	801.962 ± 0.96
353.15 K, 62015 kPa	803.245 ± 0.96
353.15 K, 64989 kPa	805.09 ± 0.97
353.15 K, 66151 kPa	805.82 ± 0.97
358.15 K, 91.6 kPa	747.694 ± 0.81
358.15 K, 304.9 kPa	747.895 ± 0.81
358.15 K, 517.3 kPa	748.147 ± 0.81
358.15 K, 850.1 kPa	748.568 ± 0.81
358.15 K, 1095.5 kPa	748.835 ± 0.81
358.15 K, 2101.6 kPa	750.029 ± 0.81
358.15 K, 3210.6 kPa	751.303 ± 0.81
358.15 K, 5324.2 kPa	753.465 ± 0.82
358.15 K, 7190.1 kPa	755.483 ± 0.82
358.15 K, 9074.3 kPa	757.505 ± 0.82
358.15 K, 10165 kPa	758.644 ± 0.83
358.15 K, 12208 kPa	760.738 ± 0.83
358.15 K, 13986 kPa	762.552 ± 0.83
358.15 K, 15000 kPa	763.577 ± 0.84
358.15 K, 17866 kPa	766.293 ± 0.84
358.15 K, 20104 kPa	768.379 ± 0.85
358.15 K, 27962 kPa	775.177 ± 0.87
358.15 K, 30131 kPa	776.699 ± 0.87
358.15 K, 32076 kPa	778.299 ± 0.88
358.15 K, 32938 kPa	778.904 ± 0.88
358.15 K, 33039 kPa	779.08 ± 0.88
358.15 K, 33914 kPa	779.672 ± 0.88
358.15 K, 34978 kPa	780.53 ± 0.89
358.15 K, 37986 kPa	782.876 ± 0.9
358.15 K, 39996 kPa	784.402 ± 0.9
358.15 K, 42079 kPa	785.976 ± 0.91
358.15 K, 45119 kPa	788.207 ± 0.92
358.15 K, 48100 kPa	790.343 ± 0.93
358.15 K, 49987 kPa	791.672 ± 0.93
358.15 K, 52101 kPa	793.112 ± 0.94
358.15 K, 54983 kPa	795.084 ± 0.95
358.15 K, 58017 kPa	797.106 ± 0.95
358.15 K, 60055 kPa	798.438 ± 0.96
358.15 K, 62083 kPa	799.766 ± 0.97
358.15 K, 65016 kPa	801.626 ± 0.98
358.15 K, 66339 kPa	802.467 ± 0.98
358.16 K, 22005 kPa	770.073 ± 0.85
358.16 K, 25079 kPa	772.781 ± 0.86
363.15 K, 53.2 kPa	742.307 ± 0.81
363.15 K, 125.5 kPa	742.405 ± 0.81
363.15 K, 320.3 kPa	742.647 ± 0.81
363.15 K, 562.5 kPa	742.935 ± 0.81
363.15 K, 892.5 kPa	743.339 ± 0.81
363.15 K, 1001.3 kPa	743.446 ± 0.81
363.15 K, 1911.6 kPa	744.576 ± 0.81
363.15 K, 2977.3 kPa	745.832 ± 0.81
363.15 K, 4957.5 kPa	748.169 ± 0.82
363.15 K, 6937.4 kPa	750.436 ± 0.82
363.15 K, 8892.9 kPa	752.564 ± 0.82
363.15 K, 10033 kPa	753.801 ± 0.83
363.15 K, 11914 kPa	755.769 ± 0.83
363.15 K, 14908 kPa	758.826 ± 0.84
363.15 K, 17925 kPa	761.773 ± 0.84
363.15 K, 19995 kPa	763.754 ± 0.85
363.15 K, 21953 kPa	765.578 ± 0.85
363.15 K, 24962 kPa	768.273 ± 0.86
363.15 K, 27932 kPa	770.858 ± 0.87
363.15 K, 30163 kPa	772.879 ± 0.88
363.15 K, 32029 kPa	774.439 ± 0.88
363.15 K, 33151 kPa	775.369 ± 0.88
363.15 K, 33315 kPa	775.421 ± 0.88
363.15 K, 34086 kPa	776.049 ± 0.89
363.15 K, 35189 kPa	776.934 ± 0.89
363.15 K, 37932 kPa	779.076 ± 0.9
363.15 K, 40070 kPa	780.754 ± 0.9
363.15 K, 41883 kPa	782.107 ± 0.91
363.15 K, 44755 kPa	784.308 ± 0.92
363.15 K, 48054 kPa	786.713 ± 0.93
363.15 K, 50037 kPa	788.134 ± 0.94
363.15 K, 51977 kPa	789.492 ± 0.94
363.15 K, 55048 kPa	791.627 ± 0.95
363.15 K, 57990 kPa	793.615 ± 0.96
363.15 K, 60071 kPa	794.972 ± 0.97
363.15 K, 62073 kPa	796.302 ± 0.97
363.15 K, 64996 kPa	798.178 ± 0.98
363.15 K, 66050 kPa	798.847 ± 0.98
